Test results published in PMC9187613 (Bioorganic chemistry, 2022).
“Also recorded” adds a separate entry of the source. Where two headings read alike, the source gives them in different places.

Legend:
DENV2 NS2B-NS3 protease = conditions: cited from earlier work
ZIKV NS5 RdRp = ZIKV NS5 RdRp (Zika virus, UniProt A0A024B7W1); experiment: NS5 RNA-dependent RNA-polymerase activity assay; format: biochemical; conditions: for inhibition of the RdRp (in words): activity assays
[1] = test system: papain-like protease (PL^pro); conditions: cited from earlier work
ZIKV NS2B-NS3 protease = ZIKV NS2B-NS3 protease (Zika virus, UniProt A0A024B7W1); experiment: NS2B-NS3 protease activity assay; format: biochemical; conditions: for inhibition of protease activity: single 200 μM concentration, 80% threshold
[2] = test system: Zika virus (ATCC strain MR 766); experiment: ZIKV replication in Vero cells, virus titers by plaque assay; conditions: for concentration at which replication was blocked completely: 48 h; for EC50: read-out: Antiviral EC50, MOI 1, 48 h, plaque assay
Vero cells = experiment: Cytotoxicity assay; conditions: for CC50: 48 h, LDH release
[3] = read-out: NS3pro IC50, 4 nM enzyme, 30 μM Bz-nKRR-AMC, 37 °C

Chain of ZIKV NS5 RdRp (A0A024B7W1 2826-3423): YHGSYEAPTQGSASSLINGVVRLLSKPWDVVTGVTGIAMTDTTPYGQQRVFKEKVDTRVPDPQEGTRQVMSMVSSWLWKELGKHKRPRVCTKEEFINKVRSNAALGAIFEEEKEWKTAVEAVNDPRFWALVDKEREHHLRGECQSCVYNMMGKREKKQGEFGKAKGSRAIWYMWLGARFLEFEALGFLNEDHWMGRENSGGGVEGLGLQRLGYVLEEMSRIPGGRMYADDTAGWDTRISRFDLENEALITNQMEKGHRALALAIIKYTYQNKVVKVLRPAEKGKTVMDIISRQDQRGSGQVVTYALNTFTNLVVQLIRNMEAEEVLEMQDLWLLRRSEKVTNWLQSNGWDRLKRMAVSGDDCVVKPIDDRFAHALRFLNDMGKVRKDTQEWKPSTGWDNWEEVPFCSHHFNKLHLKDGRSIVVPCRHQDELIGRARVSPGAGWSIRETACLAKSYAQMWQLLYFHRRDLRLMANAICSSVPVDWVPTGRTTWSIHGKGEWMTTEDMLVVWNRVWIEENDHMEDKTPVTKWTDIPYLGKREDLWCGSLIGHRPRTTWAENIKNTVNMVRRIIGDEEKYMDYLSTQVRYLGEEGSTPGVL
Chain of ZIKV NS2B-NS3 protease (A0A024B7W1 1425-1464): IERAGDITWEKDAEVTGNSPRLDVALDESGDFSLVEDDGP
Chain of ZIKV NS2B-NS3 protease (A0A024B7W1 1503-1680): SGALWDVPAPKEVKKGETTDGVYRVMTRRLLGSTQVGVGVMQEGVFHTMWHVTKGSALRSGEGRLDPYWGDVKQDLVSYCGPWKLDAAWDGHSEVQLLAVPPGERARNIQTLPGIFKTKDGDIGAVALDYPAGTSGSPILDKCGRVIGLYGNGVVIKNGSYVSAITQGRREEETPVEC

| SMILES | mode of DENV2 NS2B-NS3 protease inhibition (DENV2 NS2B-NS3 protease) | inhibition of the RdRp (in words) (ZIKV NS5 RdRp) | IC50 (ZIKV NS2B-NS3 protease; [3]) [µM] | inhibition of protease activity (ZIKV NS2B-NS3 protease) [%] | concentration at which replication was blocked completely [2] [µM] | EC50 [2] [µM] | CC50 (Vero cells) [µM] | other results |
| --- | --- | --- | --- | --- | --- | --- | --- | --- |
| CC(C)=CC[C@@H]1C(C)=CC[C@@H](c2ccccc2)[C@@H]1C(=O)c1c(O)cc(O)cc1O [4-hydroxypanduratin A] | competitive inhibitory activity |  |  |  |  |  |  |  |
| C=C(C)C(Cc1c(OC)ccc(C(=O)/C=C/c2ccc(O)cc2)c1O)OO (centres unmarked) [XA-E, Xanthoangelol E] |  | XA, but not 4HD or XA-E, inhibited | 18 ± 5 | > 80 | 75 | 22 | 111 ± 10 | mode of SARS-CoV PL^pro inhibition [1]: non-competitive mode; IC50 ([1]; read-out: SARS-CoV PL^pro IC50): 1.2 µM; mode of protease inhibition (ZIKV NS2B-NS3 protease; Michaelis-Menten and Lineweaver-Burk, consistent Km, decreasing Vmax): noncompetitive mode of inhibition |
| COc1ccc(C(=O)/C=C/c2ccc(O)cc2)c(O)c1CC=C(C)C [4-HD, 4-hydroxyderricin] |  | XA, but not 4HD or XA-E, inhibited | 47 ± 10 | > 80 | 45 | 6.6 | 103 ± 14 |  |
| COc1cc(O)c(C(=O)[C@@H]2[C@H](CC=C(C)C)C(C)=CC[C@H]2c2ccccc2)c(O)c1 [panduratin A] | competitive inhibitory activity |  |  |  |  |  |  |  |
| CC(C)=CCC/C(C)=C/Cc1c(O)ccc(C(=O)/C=C/c2ccc(O)cc2)c1O [XA, Xanthoangelol] |  |  |  |  |  |  |  | IC50 (ZIKV NS5 RdRp): 6.9 ± 0.9 µM; inhibition of polymerase activity (ZIKV NS5 RdRp; 20 μM endpoint assay): 85%; IC50 (ZIKV NS2B-NS3 protease): 50 ± 5 µM; inhibition at 200 µM (ZIKV NS2B-NS3 protease; read-out: inhibition of protease activity): > 80%; anti-ZIKV activity (in words) ([2]; concentrations exceeding 50 μM): relatively weak anti-ZIKV activity; also recorded: only weak inhibition of ZIKV growth; cytotoxic effects (in words) (Vero cells): did not display cytotoxic |
